From US20100041642A1, “UREA INHIBITORS OF MAP KINASES” (LOCUS PHARMACEUTICALS, INC., priority 2008, published 2010)

What follows are compounds tested against p38 (Homo sapiens, UniProt Q16539) (assay: Protein Kinase Assay (33P incorporation from γ-[33P]ATP into GST-ATF-2)). Settings: 2 nM p38, preincubated 20 min at 30° C.; 10 uM cold ATP, 2 uM GST-ATF2, 70 min; read-out: ACT. (Activity), IC50 category in Protein Kinase Assay.
Format: biochemical
Method: Protein Kinase Assay. The protein kinase activity of p38 was determined by measuring the incorporation of ^33P from γ-[^33P]ATP into the GST-ATF-2 substrate, amino acids 19-96 (Upstate, N.Y. USA). The reactions were carried out in a final volume of 50 μL of 24 mM Tris-HCl buffer, pH 7.5, containing 13 mM MgCl2, 12% Glycerol, 2% DMSO, 2 mM DTT, […] of γ-[^33P]ATP (1000 Ci/mmol; 1 Ci=37 GBq) (GE Healthcare, Piscataway, N.J.), 10 uM cold ATP (GE Healthcare, Piscataway, N.J.), and 2 uM GST-ATF2. Compounds were preincubated with 2 nM p38 for 20 min at 30° C.; the reactions were initiated by the addition of GST-ATF2 and ATP and incubated for 70 min at 30° C. before being stopped by the addition of 10 μL of 600 mM phosphoric acid. The phosphorylated substrate was captured on phosphocellulose 96-well plate (Millipore MAPHNOB 10), washed with 100 mM phosphoric acid, and counted in a BeckmenCoulter LS6500 liquid scintillation counter. […] (Activity).

p38, sequence (Q16539 whole entry): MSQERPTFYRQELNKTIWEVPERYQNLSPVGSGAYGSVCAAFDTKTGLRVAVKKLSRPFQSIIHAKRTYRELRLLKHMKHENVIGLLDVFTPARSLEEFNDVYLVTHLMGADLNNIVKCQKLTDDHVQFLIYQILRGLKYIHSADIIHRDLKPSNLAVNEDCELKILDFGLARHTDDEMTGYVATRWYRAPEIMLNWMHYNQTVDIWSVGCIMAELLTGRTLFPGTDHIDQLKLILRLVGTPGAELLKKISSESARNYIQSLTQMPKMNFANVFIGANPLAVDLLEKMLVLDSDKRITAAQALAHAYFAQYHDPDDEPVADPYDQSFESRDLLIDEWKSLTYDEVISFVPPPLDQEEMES

SMILES	IC50 [nM]
Cc1ccc(NC(=O)Nc2oc(C(C)(C)C)cc2C(=O)N2CCNC(=O)C2(C)C)cc1-c1ccncc1 [1-(5-tert-butyl-3-(2,2-dimethyl-3-oxopiperazine-1-carbonyl)furan-2-yl)-3-(4-methyl-3-(pyridin-4-yl)phenyl)urea]	< 100
Cc1ccc(NC(=O)Nc2sc(C(C)(C)C)cc2C(=O)N2CCNC(=O)C2(C)C)cc1-c1ccc(OCCCN2CCN(C)CC2)nc1 [1-(5-tert-butyl-3-(2,2-dimethyl-3-oxopiperazine-1-carbonyl)thiophen-2-yl)-3-(4-methyl-3-(6-(3-(4-methylpiperazin-1-yl)propoxy)pyridin-3-yl)phenyl)urea]	< 100
CCc1ccc(-c2cc(NC(=O)Nc3cn(C4(C)CCCC4)nc3C(=O)N3CCNC(=O)C3(C)C)ccc2C)cn1 [1-(3-(2,2-dimethyl-3-oxopiperazine-1-carbonyl)-1-(1-methylcyclopentyl)-1H-pyrazol-4-yl)-3-(3-(6-ethylpyridin-3-yl)-4-methylphenyl)urea]	< 100
Cc1ccc(NC(=O)Nc2cn(C(C)(C)C)nc2C(=O)N2CCNC(=O)C2(C)C)cc1-c1ccc(N2CCOCC2)nc1 [1-(1-tert-butyl-3-(2,2-dimethyl-3-oxopiperazine-1-carbonyl)-1H-pyrazol-4-yl)-3-(4-methyl-3-(6-morpholinopyridin-3-yl)phenyl)urea]	< 100
COc1ccc(-c2cc(C)cc(NC(=O)Nc3sc(C(C)(C)C)cc3C(=O)N3CCNC(=O)C3(C)C)c2)cn1 [1-(5-tert-butyl-3-(2,2-dimethyl-3-oxopiperazine-1-carbonyl)thiophen-2-yl)-3-(3-(6-methoxypyridin-3-yl)-5-methylphenyl)urea]	< 100
CCc1ccc(-c2cc(NC(=O)Nc3cn(C(C)(C)C)nc3C(=O)N3CCN(C)C(=O)C3(C)C)cc(F)c2C)cn1 [1-(1-tert-butyl-3-(2,2,4-trimethyl-3-oxopiperazine-1-carbonyl)-1H-pyrazol-4-yl)-3-(3-(6-ethylpyridin-3-yl)-5-fluoro-4-methylphenyl)urea]	< 100
COc1ccc(-c2cc(NC(=O)Nc3cc(C(C)(C)C)sc3C(=O)N3CCN(C)C(=O)C3(C)C)cc(F)c2C)cn1 [1-(5-tert-butyl-2-(2,2,4-trimethyl-3-oxopiperazine-1-carbonyl)thiophen-3-yl)-3-(3-fluoro-5-(6-methoxypyridin-3-yl)-4-methylphenyl)urea]	< 100
Cc1ccc(-c2ccc(N3CCOCC3)cn2)cc1NC(=O)Nc1cc(C(C)(C)C)sc1C(=O)N1CCNC(=O)C1(C)C [1-(5-tert-butyl-2-(2,2-dimethyl-3-oxopiperazine-1-carbonyl)thiophen-3-yl)-3-(2-methyl-5-(5-morpholinopyridin-2-yl)phenyl)urea]	< 100
Cc1ccc(NC(=O)Nc2sc(C(C)(C)C)nc2C(=O)N2CCN(C)C(=O)C2(C)C)cc1-c1ccc(CN2CCOCC2)nc1 [1-(2-tert-butyl-4-(2,2,4-trimethyl-3-oxopiperazine-1-carbonyl)thiazol-5-yl)-3-(4-methyl-3-(6-(morpholinomethyl)pyridin-3-yl)phenyl)urea]	< 100
CCc1ccc(-c2cc(NC(=O)Nc3cn(C(C)(C)C)nc3C(=O)N3CCN(C)C(=O)C3(C)C)ccc2C)cn1 [1-(1-tert-butyl-3-(2,2,4-trimethyl-3-oxopiperazine-1-carbonyl)-1H-pyrazol-4-yl)-3-(3-(6-ethylpyridin-3-yl)-4-methylphenyl)urea]	< 100
Cc1ccc(NC(=O)Nc2cn(C(C)(C)C)nc2C(=O)N2CCNC(=O)C2(C)C)cc1-c1cccnc1 [1-(1-tert-butyl-3-(2,2-dimethyl-3-oxopiperazine-1-carbonyl)-1H-pyrazol-4-yl)-3-(4-methyl-3-(pyridin-3-yl)phenyl)urea]	< 100
Cc1ccc(NC(=O)Nc2sc(C(C)(C)C)cc2C(=O)N2CCNC(=O)C2(C)C)cc1-c1ccc(N2CCOCC2)nc1 [1-(5-tert-butyl-3-(2,2-dimethyl-3-oxopiperazine-1-carbonyl)thiophen-2-yl)-3-(4-methyl-3-(6-morpholinopyridin-3-yl)phenyl)urea]	< 100

Second part, the compound after the results:

IC50 [nM]	SMILES
< 100	Cc1ccc(NC(=O)Nc2sc(C(C)(C)C)cc2C(=O)N2CCN(C)C(=O)C2(C)C)cc1-c1ccc(CN2CCOCC2)nc1 [1-(5-tert-butyl-3-(2,2,4-trimethyl-3-oxopiperazine-1-carbonyl)thiophen-2-yl)-3-(4-methyl-3-(6-(morpholinomethyl)pyridin-3-yl)phenyl)urea]
< 100	Cc1ccc(NC(=O)Nc2sc(C(C)(C)C)cc2C(=O)N2CCN(C)C(=O)C2(C)C)cc1N1C(=O)CN(C)C1=O [1-(5-tert-butyl-3-(2,2,4-trimethyl-3-oxopiperazine-1-carbonyl)thiophen-2-yl)-3-(4-methyl-3-(3-methyl-2,5-dioxoimidazolidin-1-yl)phenyl)urea]
< 100	Cc1ccc(NC(=O)Nc2sc(C(C)(C)C)cc2C(=O)N2CCNC(=O)C2(C)C)cc1N1C(=O)CN(C)C1=O [1-(5-tert-butyl-3-(2,2-dimethyl-3-oxopiperazine-1-carbonyl)thiophen-2-yl)-3-(4-methyl-3-(3-methyl-2,5-dioxoimidazolidin-1-yl)phenyl)urea]
< 100	Cc1ccc(NC(=O)Nc2sc(C(C)(C)C)cc2C(=O)N2CCNC(=O)C2(C)C)cc1-c1ncccn1 [1-(5-tert-butyl-3-(2,2-dimethyl-3-oxopiperazine-1-carbonyl)thiophen-2-yl)-3-(4-methyl-3-(pyrimidin-2-yl)phenyl)urea]
< 100	Cc1ccc(NC(=O)Nc2sc(C(C)(C)C)cc2C(=O)N2CCN(C)C(=O)C2(C)C)cc1-c1ccc(NS(C)(=O)=O)nc1 [N-(5-(5-(3-(5-tert-butyl-3-(2,2,4-trimethyl-3-oxopiperazine-1-carbonyl)thiophen-2-yl)ureido)-2-methylphenyl)pyridin-2-yl)methanesulfonamide]
< 1000	Cc1ccc(NC(=O)Nc2sc(C(C)(C)C)cc2C(=O)N2CCN(C)C(=O)C2(C)C)cc1-c1ccc(C[N+]2([O-])CCOCC2)[n+]([O-])c1 [4-((5-(5-(3-(5-tert-butyl-3-(2,2,4-trimethyl-3-oxopiperazine-1-carbonyl)thiophen-2-yl)ureido)-2-methylphenyl)-1-oxidopyridin-2-yl)methyl)morpholine 4-oxide]
< 100	Cc1ccc(NC(=O)Nc2sc(C(C)(C)C)cc2C(=O)N2CCN(CCN(C)C)C(=O)C2(C)C)cc1-c1cccnc1 [1-(5-tert-butyl-3-(4-(2-(dimethylamino)ethyl)-2,2-dimethyl-3-oxopiperazine-1-carbonyl)thiophen-2-yl)-3-(4-methyl-3-(pyridin-3-yl)phenyl)urea]
< 100	COCCOCC#Cc1cc(NC(=O)Nc2sc(C(C)(C)C)cc2C(=O)N2CCNC(=O)C2(C)C)ccc1C [1-(5-tert-butyl-3-(2,2-dimethyl-3-oxopiperazine-1-carbonyl)thiophen-2-yl)-3-(3-(3-(2-methoxyethoxy)prop-1-ynyl)-4-methylphenyl)urea]
< 100	CCc1ccc(-c2cc(NC(=O)Nc3sc(C(C)(C)C)cc3C(=O)N3CCN(C)C(=O)C3(C)C)ccc2C)cn1 [1-(5-tert-butyl-3-(2,2,4-trimethyl-3-oxopiperazine-1-carbonyl)thiophen-2-yl)-3-(3-(6-ethylpyridin-3-yl)-4-methylphenyl)urea]
